Measurements published in ChEMBL document CHEMBL5226285, “The long and winding road of designing phosphodiesterase inhibitors for the treatment of heart failure” (Eur J Med Chem, 2021).
One block for each compound: values may come before it.

Tests used:
[1] = biological target: T1, 3',5'-cyclic-AMP phosphodiesterase 4B (Homo sapiens, UniProt Q07343)
Description: Inhibition of human recombinant PDE4B1 using FAM-cAMP as substrate incubated for 20 mins

[2] = biological target: T2, cAMP and cAMP-inhibited cGMP 3',5'-cyclic phosphodiesterase 10A (Homo sapiens, UniProt Q9Y233)
Description: Inhibition of PDE10A (unknown origin)

[3] = biological target: Dual specificity calcium/calmodulin-dependent 3',5'-cyclic nucleotide phosphodiesterase 1B (Homo sapiens, UniProt Q01064)
Sequence of Dual specificity calcium/calmodulin-dependent 3',5'-cyclic nucleotide phosphodiesterase 1B (Q01064 whole entry): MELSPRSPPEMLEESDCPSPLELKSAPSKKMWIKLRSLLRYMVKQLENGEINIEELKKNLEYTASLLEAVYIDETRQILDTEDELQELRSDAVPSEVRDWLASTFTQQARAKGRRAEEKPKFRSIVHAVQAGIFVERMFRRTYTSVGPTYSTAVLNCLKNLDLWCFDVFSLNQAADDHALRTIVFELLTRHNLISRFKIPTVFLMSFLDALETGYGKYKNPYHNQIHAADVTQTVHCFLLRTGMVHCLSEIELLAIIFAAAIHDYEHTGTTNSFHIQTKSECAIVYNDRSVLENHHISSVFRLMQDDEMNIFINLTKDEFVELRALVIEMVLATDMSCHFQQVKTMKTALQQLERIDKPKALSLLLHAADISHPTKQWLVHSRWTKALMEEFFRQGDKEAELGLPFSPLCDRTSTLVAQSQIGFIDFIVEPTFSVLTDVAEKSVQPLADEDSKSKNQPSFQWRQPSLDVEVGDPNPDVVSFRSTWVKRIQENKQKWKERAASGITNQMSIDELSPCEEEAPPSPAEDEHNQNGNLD
Description: Inhibition of PDE1B (unknown origin)

[4] = biological target: T3, cGMP-specific 3',5'-cyclic phosphodiesterase (Homo sapiens, UniProt O76074)
Description: Inhibition of PDE5A1 (unknown origin) using FAM-cGMP as substrate incubated for 60 mins by IMAP-fluorescence polarization assay

Acetylcholinesterase = biological target: T4, Acetylcholinesterase (Rattus norvegicus, UniProt P37136)
T4 sequence (P37136 whole entry): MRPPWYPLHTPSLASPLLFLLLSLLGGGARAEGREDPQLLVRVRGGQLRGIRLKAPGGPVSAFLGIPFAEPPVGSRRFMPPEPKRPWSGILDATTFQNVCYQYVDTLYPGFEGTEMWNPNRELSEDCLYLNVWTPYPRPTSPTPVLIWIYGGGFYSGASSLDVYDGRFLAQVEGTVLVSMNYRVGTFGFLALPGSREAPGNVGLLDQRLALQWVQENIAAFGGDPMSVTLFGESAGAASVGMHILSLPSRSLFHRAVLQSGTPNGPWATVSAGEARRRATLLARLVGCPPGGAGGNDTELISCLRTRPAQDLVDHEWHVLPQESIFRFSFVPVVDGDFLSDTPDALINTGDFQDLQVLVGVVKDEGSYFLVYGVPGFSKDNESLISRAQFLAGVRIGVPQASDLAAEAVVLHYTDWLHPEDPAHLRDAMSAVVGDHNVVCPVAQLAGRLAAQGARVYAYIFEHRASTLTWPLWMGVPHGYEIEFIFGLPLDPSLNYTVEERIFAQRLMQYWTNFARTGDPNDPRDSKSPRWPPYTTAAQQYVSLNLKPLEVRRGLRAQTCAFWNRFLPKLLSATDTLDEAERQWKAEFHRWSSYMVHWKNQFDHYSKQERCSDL
Description: Inhibition of rat cortex AChE using acetylthiocholine iodide as substrate incubated for 20 mins by DTNB-reagent based Ellman's method

[5] = biological target: High affinity cGMP-specific 3',5'-cyclic phosphodiesterase 9A (Homo sapiens, UniProt O76083)
Sequence of High affinity cGMP-specific 3',5'-cyclic phosphodiesterase 9A (O76083 whole entry): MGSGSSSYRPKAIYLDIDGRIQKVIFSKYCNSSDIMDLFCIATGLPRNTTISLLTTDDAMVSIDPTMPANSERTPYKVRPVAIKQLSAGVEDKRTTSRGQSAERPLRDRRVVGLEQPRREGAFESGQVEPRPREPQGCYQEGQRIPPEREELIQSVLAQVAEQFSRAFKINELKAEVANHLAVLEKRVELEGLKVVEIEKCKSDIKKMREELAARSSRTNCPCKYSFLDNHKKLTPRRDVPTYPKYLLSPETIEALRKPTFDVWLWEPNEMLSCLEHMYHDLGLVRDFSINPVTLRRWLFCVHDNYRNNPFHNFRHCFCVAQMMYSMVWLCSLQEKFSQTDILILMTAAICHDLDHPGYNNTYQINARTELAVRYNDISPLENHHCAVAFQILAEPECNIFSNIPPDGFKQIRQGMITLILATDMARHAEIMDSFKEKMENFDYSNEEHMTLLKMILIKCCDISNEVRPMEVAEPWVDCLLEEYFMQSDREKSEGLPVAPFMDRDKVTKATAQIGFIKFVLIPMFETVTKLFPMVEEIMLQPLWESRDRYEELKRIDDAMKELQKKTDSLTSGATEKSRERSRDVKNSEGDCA
Description: Inhibition of PDE9A (unknown origin)

[6] = biological target: T2, cAMP and cAMP-inhibited cGMP 3',5'-cyclic phosphodiesterase 10A; remark: listed apart in the source
[7] = biological target: cGMP-dependent 3',5'-cyclic phosphodiesterase (Homo sapiens, UniProt O00408)
Sequence of cGMP-dependent 3',5'-cyclic phosphodiesterase (O00408 whole entry): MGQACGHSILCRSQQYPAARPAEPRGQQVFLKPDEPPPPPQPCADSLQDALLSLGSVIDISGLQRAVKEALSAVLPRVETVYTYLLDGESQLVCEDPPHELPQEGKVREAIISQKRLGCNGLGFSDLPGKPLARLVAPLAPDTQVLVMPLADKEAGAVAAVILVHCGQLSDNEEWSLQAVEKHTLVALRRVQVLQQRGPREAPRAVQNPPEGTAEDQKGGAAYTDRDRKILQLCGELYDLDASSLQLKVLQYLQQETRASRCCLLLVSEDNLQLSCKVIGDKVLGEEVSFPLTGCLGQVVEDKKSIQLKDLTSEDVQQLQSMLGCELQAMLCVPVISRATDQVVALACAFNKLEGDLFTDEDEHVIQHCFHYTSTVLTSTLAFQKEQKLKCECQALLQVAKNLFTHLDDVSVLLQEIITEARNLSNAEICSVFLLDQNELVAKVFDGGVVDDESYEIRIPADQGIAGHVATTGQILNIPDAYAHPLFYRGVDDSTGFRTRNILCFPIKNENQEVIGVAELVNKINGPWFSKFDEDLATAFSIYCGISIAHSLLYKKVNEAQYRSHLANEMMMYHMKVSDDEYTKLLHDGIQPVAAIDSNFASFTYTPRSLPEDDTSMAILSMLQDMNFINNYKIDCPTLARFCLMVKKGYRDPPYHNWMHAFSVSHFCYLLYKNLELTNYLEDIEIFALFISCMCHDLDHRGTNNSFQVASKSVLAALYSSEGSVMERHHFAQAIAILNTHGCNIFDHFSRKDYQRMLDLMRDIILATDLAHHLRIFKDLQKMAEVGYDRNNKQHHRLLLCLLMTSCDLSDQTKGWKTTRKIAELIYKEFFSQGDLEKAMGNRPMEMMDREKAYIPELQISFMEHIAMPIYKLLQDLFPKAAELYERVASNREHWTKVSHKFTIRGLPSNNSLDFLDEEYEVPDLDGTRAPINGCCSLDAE

Phosphodiesterase 4 = Phosphodiesterase 4 (Homo sapiens, UniProt P27815+Q08499+Q07343+Q08493); type: protein assay
Description: Inhibition of PDE4 (unknown origin)

[8] = biological target: T3, cGMP-specific 3',5'-cyclic phosphodiesterase; remark: listed apart in the source
Description: Inhibition of human recombinant PDE5A using (Fl)-cAMP and TAMRA-cGMP as substrate incubated for 60 mins by IMAP-fluorescence polarization assay

[9] = biological target: T1, 3',5'-cyclic-AMP phosphodiesterase 4B; remark: listed apart in the source
Description: Displacement of [3H]-cAMP from full-length recombinant human PDE4B1 by fluorescence polarisation assay

[10] = biological target: 3',5'-cyclic-AMP phosphodiesterase 4D (Homo sapiens, UniProt Q08499)
Description: Displacement of [3H]-cAMP from full-length recombinant human PDE4D7 by fluorescence polarisation assay

[11] = biological target: High affinity cAMP-specific and IBMX-insensitive 3',5'-cyclic phosphodiesterase 8A (Homo sapiens, UniProt O60658); assay: biochemical; type: cell-based, Sf9
Sequence of High affinity cAMP-specific and IBMX-insensitive 3',5'-cyclic phosphodiesterase 8A (O60658 whole entry): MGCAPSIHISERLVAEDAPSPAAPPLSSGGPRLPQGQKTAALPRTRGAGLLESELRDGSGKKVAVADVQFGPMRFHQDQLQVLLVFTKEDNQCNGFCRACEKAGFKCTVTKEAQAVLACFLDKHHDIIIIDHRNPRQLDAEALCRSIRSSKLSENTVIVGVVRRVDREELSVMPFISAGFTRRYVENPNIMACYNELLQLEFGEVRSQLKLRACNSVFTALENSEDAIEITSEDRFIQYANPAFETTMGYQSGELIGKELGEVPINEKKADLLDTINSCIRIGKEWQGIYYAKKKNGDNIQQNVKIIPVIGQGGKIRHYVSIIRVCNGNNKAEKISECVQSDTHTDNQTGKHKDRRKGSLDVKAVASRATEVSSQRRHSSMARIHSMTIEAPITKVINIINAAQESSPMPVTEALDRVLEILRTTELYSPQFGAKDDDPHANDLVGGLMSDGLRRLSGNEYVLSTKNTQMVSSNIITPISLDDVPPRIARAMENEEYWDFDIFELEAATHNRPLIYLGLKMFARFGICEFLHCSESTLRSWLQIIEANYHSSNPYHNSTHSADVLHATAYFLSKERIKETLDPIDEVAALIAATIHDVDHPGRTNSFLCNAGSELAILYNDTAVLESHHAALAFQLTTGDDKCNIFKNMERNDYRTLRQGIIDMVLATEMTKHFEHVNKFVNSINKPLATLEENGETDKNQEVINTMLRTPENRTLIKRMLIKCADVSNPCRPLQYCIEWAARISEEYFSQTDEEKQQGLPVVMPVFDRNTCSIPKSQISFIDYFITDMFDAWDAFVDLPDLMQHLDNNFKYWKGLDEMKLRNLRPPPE
Description: Inhibition of human recombinant PDE8A expressed in baculovirus infected Sf9 insect cells

T1 sequence (Q07343 whole entry): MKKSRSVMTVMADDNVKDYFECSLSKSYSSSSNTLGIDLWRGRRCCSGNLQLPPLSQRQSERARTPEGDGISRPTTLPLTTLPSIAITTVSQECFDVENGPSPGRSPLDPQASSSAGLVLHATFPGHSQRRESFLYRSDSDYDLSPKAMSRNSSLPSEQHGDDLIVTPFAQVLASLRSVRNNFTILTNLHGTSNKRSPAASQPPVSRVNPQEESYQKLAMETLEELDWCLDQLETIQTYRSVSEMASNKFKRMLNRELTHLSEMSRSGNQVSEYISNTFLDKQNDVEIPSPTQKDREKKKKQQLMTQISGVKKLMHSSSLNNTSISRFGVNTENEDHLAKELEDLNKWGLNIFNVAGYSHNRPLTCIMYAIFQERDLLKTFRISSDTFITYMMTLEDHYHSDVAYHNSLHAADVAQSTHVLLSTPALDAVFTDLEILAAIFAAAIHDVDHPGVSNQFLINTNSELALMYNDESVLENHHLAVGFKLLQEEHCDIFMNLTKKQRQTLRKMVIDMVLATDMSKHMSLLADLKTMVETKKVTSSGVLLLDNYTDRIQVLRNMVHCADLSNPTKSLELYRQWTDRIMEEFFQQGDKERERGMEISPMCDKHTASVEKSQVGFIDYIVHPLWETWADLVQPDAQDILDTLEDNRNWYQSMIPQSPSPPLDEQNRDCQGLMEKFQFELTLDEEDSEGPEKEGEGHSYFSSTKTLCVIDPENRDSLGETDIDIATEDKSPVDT
T2 sequence (Q9Y233 whole entry): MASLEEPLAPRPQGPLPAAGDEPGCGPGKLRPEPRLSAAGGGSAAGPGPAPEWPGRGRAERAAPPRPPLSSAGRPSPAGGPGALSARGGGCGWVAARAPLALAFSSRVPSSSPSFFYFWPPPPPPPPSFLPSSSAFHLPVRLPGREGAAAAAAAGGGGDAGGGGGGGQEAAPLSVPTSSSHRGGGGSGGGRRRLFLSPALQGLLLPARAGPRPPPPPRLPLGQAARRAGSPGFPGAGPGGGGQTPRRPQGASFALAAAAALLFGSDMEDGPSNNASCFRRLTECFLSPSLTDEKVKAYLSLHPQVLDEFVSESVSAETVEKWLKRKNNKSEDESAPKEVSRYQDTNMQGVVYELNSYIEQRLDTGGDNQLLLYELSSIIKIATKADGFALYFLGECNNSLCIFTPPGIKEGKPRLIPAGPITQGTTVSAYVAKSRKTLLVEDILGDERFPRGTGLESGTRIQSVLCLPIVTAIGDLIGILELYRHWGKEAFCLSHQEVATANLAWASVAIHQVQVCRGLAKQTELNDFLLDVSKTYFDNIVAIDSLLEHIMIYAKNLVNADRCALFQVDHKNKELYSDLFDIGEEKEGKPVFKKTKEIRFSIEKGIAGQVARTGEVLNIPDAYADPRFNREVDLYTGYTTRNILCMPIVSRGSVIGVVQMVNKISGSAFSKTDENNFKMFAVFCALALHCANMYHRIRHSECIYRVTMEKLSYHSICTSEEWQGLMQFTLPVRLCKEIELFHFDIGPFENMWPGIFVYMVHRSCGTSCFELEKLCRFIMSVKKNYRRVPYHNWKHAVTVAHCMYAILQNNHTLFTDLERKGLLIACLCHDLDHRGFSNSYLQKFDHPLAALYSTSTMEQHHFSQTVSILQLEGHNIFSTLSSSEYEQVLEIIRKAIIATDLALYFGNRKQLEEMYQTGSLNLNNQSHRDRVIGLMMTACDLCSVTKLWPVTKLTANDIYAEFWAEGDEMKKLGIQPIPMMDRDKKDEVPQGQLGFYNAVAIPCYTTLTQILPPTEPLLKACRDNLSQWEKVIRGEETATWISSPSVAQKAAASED

SMILES: COc1cc2ncnc(N3CC[C@@H](Oc4cnc5ccccc5n4)C3)c2cc1OC
IC50 [2]: 6 nM

SMILES: COc1cc2ncnc(C(C)c3cccc(Cl)c3)c2cc1OC (centres undefined)
IC50 [3]: 130 nM

SMILES: O=C1[C@H]2Cc3c([nH]c4ccccc34)[C@@H](c3ccc4c(c3)OCO4)N2C(=O)CN1CCC1CCN(Cc2ccccc2)CC1
IC50 [4]: 36 nM
IC50 (Acetylcholinesterase): 153 nM

SMILES: C[C@@H](Nc1nc2c(cnn2C2CCCC2)c(=O)n1Cc1ccccc1)c1ccc(Cl)cc1
IC50 [5]: > 10000 nM

SMILES: CCCCOc1ccc(F)c(-c2nc(C)c3nnc4ccc(OCCF)nc4n23)c1
IC50 [6]: > 1000 nM

SMILES: Cc1ncn(-c2nc3c(C(=O)N[C@@H](c4ccc(OC(F)(F)F)cc4)C(C)(C)O)cnn3cc2C)n1
IC50 [7]: 0.51 nM

SMILES: CCCN(CCC)c1ncnc2c(OC)c(OC)c(OC)cc12
IC50 [3]: 219 nM

SMILES: O=C1[C@@H]2Cc3c([nH]c4ccccc34)[C@@H](c3ccc4c(c3)OCO4)N2C(=O)CN1CCC1CCN(Cc2ccccc2)CC1
IC50 [4]: 32 nM
IC50 (Acetylcholinesterase): 1530 nM

SMILES: COc1ccc([C@@H]2c3[nH]c4ccccc4c3C[C@H]3C(=O)N(CCC4CCN(Cc5ccccc5)CC4)CC(=O)N23)cc1
IC50 [4]: 15 nM
IC50 (Acetylcholinesterase): 3230 nM

SMILES: O=C1NC[C@@H]2[C@@H](c3ccc(OC(F)F)c(OCC4CC4)c3)CCN12
IC50 [1]: 18 nM

The next lines start with the values.

IC50 [1]: 27 nM
SMILES: COc1ccc([C@H]2CCN3C(=O)NC[C@H]23)cc1OC1CCCC1

IC50 (Phosphodiesterase 4): 0.7 nM
SMILES: CC(=O)OCCOc1nc(Oc2ccc3c(c2)COB3O)ccc1C#N

IC50 [8]: 3 nM
SMILES: CCN1CC(=O)N2[C@H](c3ccc(Cl)cc3)c3[nH]c4ccccc4c3C[C@@H]2C1=O

IC50 [9]: 290 nM
IC50 [10]: 310 nM
SMILES: N#CC(c1ccc(OC(F)F)c(OC2CCCC2)c1)c1ccc(Cl)nn1 (centres undefined)

IC50 [11]: 4000 nM
SMILES: OCCN(CCO)c1nc(N2CCCCC2)c2nc(N(CCO)CCO)nc(N3CCCCC3)c2n1 [DIPYRIDAMOLE]
